Assays:
Experiment in all cases: cells
[1] = system: HCC1954; type: functional, cell-based, Homo sapiens; conditions: Homo sapiens, HCC1954;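 also: growth inhibition of human HCC1954 cells, read out with a cell viability assay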
Description: SANGER: Inhibition of human HCC1954 cell growth in a cell viability assay.

[2] = system: CAPAN-1; type: functional, cell-based, Homo sapiens; conditions: Homo sapiens, CAPAN-1;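 also: growth suppression of CAPAN-1 cells, read out by a cell viability assay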
Description: SANGER: Inhibition of human CAPAN-1 cell growth in a cell viability assay.

[3] = system: MOLT-16; type: functional, cell-based; conditions: Homo sapiens;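 also: growth inhibition of human MOLT-16 cells, read out with a cell viability assay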
Description: SANGER: Inhibition of human MOLT-16 cell growth in a cell viability assay.

[4] = system: NCI-H292; type: functional, cell-based, Homo sapiens; conditions: Homo sapiens, NCI-H292;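 also: growth inhibition of NCI-H292 cells, read out with a cell viability assay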
Description: SANGER: Inhibition of human NCI-H292 cell growth in a cell viability assay.

[5] = system: SN12C; type: functional, cell-based, Homo sapiens; conditions: Homo sapiens, SN12C;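 also: growth inhibition of human SN12C cells, measured by a cell viability assay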
Description: SANGER: Inhibition of human SN12C cell growth in a cell viability assay.

[6] = system: L-363; type: functional, cell-based; conditions: Homo sapiens
Description: SANGER: Inhibition of human L-363 cell growth in a cell viability assay.

[7] = system: CAKI-1; type: functional, cell-based, Homo sapiens; conditions: Homo sapiens, CAKI-1;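 also: growth inhibition of CAKI-1 cells, measured by a cell viability assay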
Description: SANGER: Inhibition of human CAKI-1 cell growth in a cell viability assay.

[8] = system: VA-ES-BJ; type: functional, cell-based, Homo sapiens; conditions: Homo sapiens, VA-ES-BJ;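 also: growth inhibition of the VA-ES-BJ cell line, read out by a cell viability assay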
Description: SANGER: Inhibition of human VA-ES-BJ cell growth in a cell viability assay.

[9] = system: MC-IXC; type: functional, cell-based, Homo sapiens; conditions: Homo sapiens, MC-IXC;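 also: growth inhibition of MC-IXC cells, read out with a cell viability assay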
Description: SANGER: Inhibition of human MC-IXC cell growth in a cell viability assay.

[10] = system: NCI-H358; type: functional, cell-based, Homo sapiens; conditions: Homo sapiens, NCI-H358;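 also: growth inhibition of NCI-H358 human cells, read out with a cell viability assay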
Description: SANGER: Inhibition of human NCI-H358 cell growth in a cell viability assay.

[11] = system: NCI-H1793; type: functional, cell-based, Homo sapiens; conditions: Homo sapiens, NCI-H1793;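 also: cell growth inhibition, read out by a cell viability assay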
Description: SANGER: Inhibition of human NCI-H1793 cell growth in a cell viability assay.

[12] = system: NY; type: functional, cell-based, Homo sapiens; conditions: Homo sapiens, NY
Description: SANGER: Inhibition of human NY cell growth in a cell viability assay.

[13] = system: T84; type: functional, cell-based, Homo sapiens; conditions: Homo sapiens, T84;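 also: growth inhibition measured with a cell viability readout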
Description: SANGER: Inhibition of human T84 cell growth in a cell viability assay.

[14] = system: TE-9; type: functional, cell-based, Homo sapiens; conditions: Homo sapiens, TE-9;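 also: cell growth inhibition, measured with a cell viability readout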
Description: SANGER: Inhibition of human TE-9 cell growth in a cell viability assay.

[15] = system: NCI-H69; type: functional, cell-based; conditions: Homo sapiens;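 also: growth inhibition of the cell line, read out with a cell viability assay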
Description: SANGER: Inhibition of human NCI-H69 cell growth in a cell viability assay.

[16] = system: KU-19-19; type: functional, cell-based, Homo sapiens; conditions: Homo sapiens, KU-19-19
Description: SANGER: Inhibition of human KU-19-19 cell growth in a cell viability assay.

[17] = system: Ca9-22; type: functional, cell-based, Homo sapiens; conditions: Homo sapiens, Ca9-22;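 also: growth inhibition of Ca9-22 cells, read out with a cell viability assay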
Description: SANGER: Inhibition of human Ca9-22 cell growth in a cell viability assay.

[18] = system: PANC-03-27; type: functional, cell-based, Homo sapiens; conditions: Homo sapiens, PANC-03-27
Description: SANGER: Inhibition of human PANC-03-27 cell growth in a cell viability assay.

[19] = system: CWR22R; type: functional, cell-based, Homo sapiens; conditions: Homo sapiens, 22Rv1;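 also: growth inhibition of 22Rv1 cells, read out with a cell viability assay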
Description: SANGER: Inhibition of human 22RV1 cell growth in a cell viability assay.

[20] = system: SNU-449; type: functional, cell-based, Homo sapiens; conditions: Homo sapiens, SNU-449
Description: SANGER: Inhibition of human SNU-449 cell growth in a cell viability assay.

[21] = system: KMOE-2; type: functional, cell-based; conditions: Homo sapiens;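 also: growth inhibition of human KMOE-2 cells, read out with a cell viability assay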
Description: SANGER: Inhibition of human KMOE-2 cell growth in a cell viability assay.

[22] = system: TGBC1TKB; type: functional, cell-based, Homo sapiens; conditions: Homo sapiens, TGBC1TKB;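 also: growth inhibition of TGBC1TKB cells, read out by a cell viability assay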
Description: SANGER: Inhibition of human TGBC1TKB cell growth in a cell viability assay.

[23] = system: SK-LMS-1; type: functional, cell-based, Homo sapiens; conditions: Homo sapiens, SK-LMS-1;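 also: growth inhibition of human SK-LMS-1 cells, read out with a cell viability assay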
Description: SANGER: Inhibition of human SK-LMS-1 cell growth in a cell viability assay.

[24] = system: KALS-1; type: functional, cell-based, Homo sapiens; conditions: Homo sapiens, KALS-1;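 also: growth inhibition of KALS-1 cells, determined with a cell viability assay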
[25] = system: KS-1; type: functional, cell-based, Homo sapiens; conditions: Homo sapiens, KS-1;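 also: growth inhibition of KS-1 cells, read out with a cell viability assay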
Description: SANGER: Inhibition of human KS-1 cell growth in a cell viability assay.

[26] = system: SBC-1; type: functional, cell-based; conditions: Homo sapiens;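 also: cell viability assay measuring growth inhibition of the SBC-1 cell line, IC50 being the concentration that halves growth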
Description: SANGER: Inhibition of human SBC-1 cell growth in a cell viability assay.

[27] = system: NCI-H1437; type: functional, cell-based, Homo sapiens; conditions: Homo sapiens, NCI-H1437;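 also: growth inhibition of human NCI-H1437 cells, read out by a cell viability assay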
Description: SANGER: Inhibition of human NCI-H1437 cell growth in a cell viability assay.

[28] = system: NCI-H1770; type: functional, cell-based; conditions: Homo sapiens;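 also: growth inhibition of NCI-H1770 cells determined with a viability readout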
Description: SANGER: Inhibition of human NCI-H1770 cell growth in a cell viability assay.

[29] = system: NCI-N87; type: functional, cell-based, Homo sapiens; conditions: Homo sapiens, NCI-N87;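 also: growth inhibition of human NCI-N87 cells, read out with a cell viability assay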
Description: SANGER: Inhibition of human NCI-N87 cell growth in a cell viability assay.

[30] = system: KYSE-270; type: functional, cell-based, Homo sapiens; conditions: Homo sapiens, KYSE-270;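 also: cell growth inhibition measured with a viability assay in the human KYSE-270 line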
Description: SANGER: Inhibition of human KYSE-270 cell growth in a cell viability assay.

[31] = system: RVH-421; type: functional, cell-based, Homo sapiens; conditions: Homo sapiens, RVH-421
Description: SANGER: Inhibition of human RVH-421 cell growth in a cell viability assay.

[32] = system: MZ7-mel; type: functional, cell-based, Homo sapiens; conditions: Homo sapiens, MZ7-mel;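 also: growth inhibition of human MZ7-mel cells, measured by a cell viability assay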
Description: SANGER: Inhibition of human MZ7-mel cell growth in a cell viability assay.

[33] = system: MHH-NB-11; type: functional, cell-based, Homo sapiens; conditions: Homo sapiens, MHH-NB-11;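 also: growth inhibition of human MHH-NB-11 cells, read out by a cell viability assay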
Description: SANGER: Inhibition of human MHH-NB-11 cell growth in a cell viability assay.

[34] = system: MIA PaCa-2; type: functional, cell-based, Homo sapiens; conditions: Homo sapiens, MIA PaCa-2;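 also: growth inhibition of MIA PaCa-2 cells, read out with a cell viability assay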
Description: SANGER: Inhibition of human MIA-PaCa-2 cell growth in a cell viability assay.

[35] = system: JVM-3; type: functional, cell-based; conditions: Homo sapiens;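 also: growth inhibition of human JVM-3 cells, read out with a cell viability assay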
Description: SANGER: Inhibition of human JVM-3 cell growth in a cell viability assay.

[36] = system: CAL-85-1; type: functional, cell-based; conditions: Homo sapiens;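 also: growth inhibition of human CAL-85-1 cells, read out with a cell viability assay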
[37] = system: NCI-H1623; type: functional, cell-based, Homo sapiens; conditions: Homo sapiens, NCI-H1623;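 also: cell viability assay used as the read-out for growth inhibition of NCI-H1623 cells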
Description: SANGER: Inhibition of human NCI-H1623 cell growth in a cell viability assay.

[38] = system: HT-1080; type: functional, cell-based, Homo sapiens; conditions: Homo sapiens, HT-1080
Description: SANGER: Inhibition of human HT-1080 cell growth in a cell viability assay.

[39] = system: MEL-HO; type: functional, cell-based, Homo sapiens; conditions: Homo sapiens, MEL-HO
Description: SANGER: Inhibition of human MEL-HO cell growth in a cell viability assay.

[40] = system: D-502MG; type: functional, cell-based, Homo sapiens; conditions: Homo sapiens, D-502MG
Description: SANGER: Inhibition of human D-502MG cell growth in a cell viability assay.

[41] = system: GI-ME-N; type: functional, cell-based, Homo sapiens; conditions: Homo sapiens, GI-ME-N;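 also: growth inhibition of human GI-ME-N cells, read out with a cell viability assay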
Description: SANGER: Inhibition of human GI-ME-N cell growth in a cell viability assay.

[42] = system: KP-N-YN; type: functional, cell-based; conditions: Homo sapiens;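 also: growth inhibition of KP-N-YN cells, read out with a cell viability assay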
Description: SANGER: Inhibition of human KP-N-YN cell growth in a cell viability assay.

[43] = system: OE33; type: functional, cell-based, Homo sapiens; conditions: Homo sapiens, OE33;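 also: growth inhibition of human OE33 cells, measured by a cell viability assay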
Description: SANGER: Inhibition of human OE33 cell growth in a cell viability assay.

[44] = system: UACC-257; type: functional, cell-based, Homo sapiens; conditions: Homo sapiens, UACC-257
Description: SANGER: Inhibition of human UACC-257 cell growth in a cell viability assay.

[45] = system: SK-HEP1; type: functional, cell-based, Homo sapiens, SK-HEP-1; conditions: Homo sapiens, SK-HEP1;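 also: cell viability readout used to quantify reduction in proliferation of human SK-HEP-1 cells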
Description: SANGER: Inhibition of human SK-HEP-1 cell growth in a cell viability assay.

[46] = system: 639-V; type: functional, cell-based, Homo sapiens; conditions: Homo sapiens, 639-V;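 also: growth inhibition of 639-V cells, read out with a cell viability assay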
Description: SANGER: Inhibition of human 639-V cell growth in a cell viability assay.

[47] = system: SW1990; type: functional, cell-based, Homo sapiens; conditions: Homo sapiens, SW1990;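 also: cell growth inhibition determined with a viability assay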
Description: SANGER: Inhibition of human SW1990 cell growth in a cell viability assay.

[48] = system: HCC1806; type: functional, cell-based, Homo sapiens; conditions: Homo sapiens, HCC1806;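 also: growth inhibition of the cancer cell line, determined with a cell viability assay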
Description: SANGER: Inhibition of human HCC1806 cell growth in a cell viability assay.

[49] = system: D-542MG; type: functional, cell-based, Homo sapiens; conditions: Homo sapiens, D-542MG
Description: SANGER: Inhibition of human D-542MG cell growth in a cell viability assay.

[50] = system: SK-MEL3; type: functional, cell-based, Homo sapiens, SK-MEL-3; conditions: Homo sapiens, SK-MEL3;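 also: growth inhibition of human SK-MEL-3 cells, read out with a cell viability assay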
Description: SANGER: Inhibition of human SK-MEL-3 cell growth in a cell viability assay.

Measured: IC50

Cc1ccc(Nc2nccc(N(C)c3ccc4c(C)n(C)nc4c3)n2)cc1S(N)(=O)=O [PAZOPANIB]
1120 nM: [9]
1850 nM: [12]
> 8000 nM: [1] | [2] | [3] | [4] | [5] | [6] | [7] | [8] | [10] | [11] | [13] | [14] | [15] | [16] | [17] | [18] | [19] | [20] | [21] | [22] | [23] | [24] | [25] | [26] | [27] | [28] | [29] | [30] | [31] | [32] | [33] | [35] | [36] | [37] | [38] | [39] | [41] | [42] | [43] | [44] | [45] | [46] | [47] | [48] | [49] | [50]
5600 nM: [34]
7780 nM: [40]

C[C@]1(O)C[C@@H](c2nc(-c3ccc4ccc(-c5ccccc5)nc4c3)c3c(N)nccn32)C1 [LINSITINIB]
1230 nM: [36]
1990 nM: [9]
> 2560 nM: [1] | [2] | [3] | [4] | [5] | [7] | [8] | [11] | [12] | [14] | [15] | [16] | [17] | [18] | [19] | [20] | [21] | [22] | [23] | [24] | [26] | [27] | [29] | [30] | [31] | [32] | [33] | [34] | [35] | [37] | [38] | [39] | [40] | [41] | [42] | [43] | [44] | [45] | [46] | [47] | [48] | [49]
38.4 nM: [25]
671 nM: [10]
1510 nM: [28]
1490 nM: [50]
1210 nM: [13]
1340 nM: [6]
